Where two headings read alike, the source gives them in different places.
Key:
[1] = system: group I PAKs (PAK1-3) in EBC1 cells, MEK1 phosphorylation at S298; test: Cellular PAK assay: MEK1 (S298) phosphorylation in EBC1 cells, HTRF; type: cell-based; details: Homo sapiens, EBC-1, 2 h treatment, Example 66
Protocol: Group I PAKs (PAK1-3) are activated upon binding to the Rho GTPases, Rac1 and Cdc42. […] The inhibition of group I PAKs in EBC1 cells is assessed by detecting changes in the level of MEK1 phosphorylation at S298 using homogenous time-resolved fluorescence (HTRF). […] Following inhibitor treatment, cells were lysed with 25 μL of 1× cellular kinase lysis buffer (Cisbio) containing 1× cellular kinase blocking reagent (Cisbio). Cellular lysis was carried out at 4° C. for 2 h with constant shaking before lysate (16 μL) was transferred to white 384-well ProxiPlates™ (Perkin Elmer).

[2] = biological target: T1, human recombinant GST-PAK1-KD protein (Homo sapiens, UniProt Q13153); test: GST-PAK1-KD (kinase domain) biochemical assay, microfluidic mobility shift
T1 construct: residues #249-545 of human PAK1, UniProtKP/Swiss Q13153; His6 (N); made in house; host or cells: Sf9 insect cells, pAcGP67 baculovirus expression vector

[3] = GST-PAK1-KD Inhibition Assay - Example 65, read-out: PAK1 inhibition Ki
[4] = Table I, PAK1 Ki class, read-out: Ki
[5] = Table II, PAK1 Ki class, read-out: Ki

T1 sequence (Q13153 249-545): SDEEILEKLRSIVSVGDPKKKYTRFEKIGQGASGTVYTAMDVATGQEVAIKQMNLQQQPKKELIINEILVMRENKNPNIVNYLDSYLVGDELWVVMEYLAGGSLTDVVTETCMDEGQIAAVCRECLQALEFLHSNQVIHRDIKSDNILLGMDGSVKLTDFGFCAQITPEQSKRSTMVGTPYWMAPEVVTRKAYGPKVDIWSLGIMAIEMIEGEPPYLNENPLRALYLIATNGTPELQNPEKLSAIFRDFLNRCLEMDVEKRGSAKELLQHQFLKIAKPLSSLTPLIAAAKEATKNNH

| SMILES | IC50 [1] [nM] | Ki [2, 3] [nM] | Ki [2, 4] [nM] | Ki ([2]; Ki, Table I, PAK1 Ki class) [nM] | Ki [2, 5] [nM] |
| --- | --- | --- | --- | --- | --- |
| Cc1cc(Nc2cc(C3CC3)[nH]n2)nc(N[C@@H](C)c2ccc3[nH]ccc3c2)n1 [I-7, (S)—N^2-(1-(1H-indol-5-yl)ethyl)-N^4-(5-cyclopropyl-1H-pyrazol-3-yl)-6-methylpyrimidine-2,4-diamine] | 212 | 13.5 | < 50 |  |  |
| C[C@H](Nc1nccc(Nc2cc(C3CC3)[nH]n2)n1)c1ccc2[nH]ccc2c1 [I-8, (S)—N^2-(1-(1H-indol-5-yl)ethyl)-N^4-(5-cyclopropyl-1H-pyrazol-3-yl)pyrimidine-2,4-diamine] | 133 | 15.1 |  | < 50 |  |
| FC(F)(F)c1cc(Nc2cc(C3CC3)[nH]n2)nc(NCc2ccc3[nH]cnc3c2)n1 [I-11, N^2-((1H-benzo[d]imidazol-5-yl)methyl)-N^4-(5-cyclopropyl-1H-pyrazol-3-yl)-6-(trifluoromethyl)pyrimidine-2,4-diamine] | 917 | 33 | < 50 |  |  |
| c1cc(CNc2nccc(Nc3cc(C4CC4)[nH]n3)n2)c2nc[nH]c2c1 [I-39, N^2-((1H-benzo[d]imidazol-4-yl)methyl)-N^4-(5-cyclopropyl-1H-pyrazol-3-yl)pyrimidine-2,4-diamine] | 205 | 74.7 | 50 to 250 |  |  |
| C[C@H](Nc1nccc(Nc2cc(CC3CC3)[nH]n2)n1)c1ccc2[nH]cnc2c1 [I-45, (S)—N^2-(1-(1H-benzo[d]imidazol-5-yl)ethyl)-N^4-(5-(cyclopropylmethyl)-1H-pyrazol-3-yl)pyrimidine-2,4-diamine] | 1200 | 41 | < 50 |  |  |
| c1cc(CNc2nccc(Nc3cc(C4CC4)[nH]n3)n2)c2cn[nH]c2c1 [I-59, N^2-((1H-Indazol-4-yl)methyl)-N^4-(5-cyclopropyl-1H-pyrazol-3-yl)pyrimidine-2,4-diamine] | 104 | 37 | < 50 |  |  |
| C[C@H](Nc1nccc(Nc2cc([C@H]3CC3(F)F)[nH]n2)n1)c1ccc2[nH]cnc2c1 [I-62, N^2—((S)-1-(1H-benzo[d]imidazol-5-yl)ethyl)-N^4-(5-((R)-2,2-difluorocyclopropyl)-1H-pyrazol-3-yl)pyrimidine-2,4-diamine] | 244 | 5.13 | < 50 |  |  |
| Clc1cnc(NCc2ccc3[nH]cnc3c2Cl)nc1Nc1cc(C2CC2)[nH]n1 [I-106, 5-chloro-N^2-((4-chloro-1H-benzo[d]imidazol-5-yl)methyl)-N^4-(5-cyclopropyl-1H-pyrazol-3-yl)pyrimidine-2,4-diamine] | 1300 | 14.8 | < 50 |  |  |
| Clc1c(CNc2nccc(Nc3cc(C4CCCO4)[nH]n3)n2)ccc2[nH]cnc12 (centres unmarked) [I-109, N^2-((4-chloro-1H-benzo[d]imidazol-5-yl)methyl)-N^4-(5-(tetrahydrofuran-2-yl)-1H-pyrazol-3-yl)pyrimidine-2,4-diamine] | 786 | 27.5 | < 50 |  |  |
| C[C@H](Nc1nccc(Nc2cc(C3CCC3)[nH]n2)n1)c1ccc2[nH]ccc2c1 [I-114, (S)—N^2-(1-(1H-indol-5-yl)ethyl)-N^4-(5-cyclobutyl-1H-pyrazol-3-yl)pyrimidine-2,4-diamine] | 133 | 6.75 | < 50 |  |  |

Now from value to compound:

| IC50 [1] [nM] | Ki [2, 3] [nM] | Ki [2, 4] [nM] | Ki ([2]; Ki, Table I, PAK1 Ki class) [nM] | Ki [2, 5] [nM] | SMILES |
| --- | --- | --- | --- | --- | --- |
| 475 | 7.1 |  |  | < 50 | CN(Cc1ccc2[nH]cnc2c1Cl)c1nccc(Nc2cc(C3COC3)[nH]n2)n1 [II-2, N^2-[(4-Chloro-1H-benzimidazol-5-yl)methyl]-N^2-methyl-N4-[5-(oxetan-3-yl)-1H-pyrazol-3-yl]pyrimidine-2,4-diamine] |
| 43 | 1.6 |  |  | < 50 | CCN(Cc1ccc2[nH]cnc2c1Cl)c1nccc(Nc2cc(C(C)C)[nH]n2)n1 [II-11, N^2-((4-Chloro-1H-benzo[d]imidazol-5-yl)methyl)-N^2-ethyl-N^4-(5-isopropyl-1H-pyrazol-3-yl)pyrimidine-2,4-diamine] |
| 188 | 36 |  |  | < 50 | Fc1cnc(NCc2cc(Cl)cc3[nH]cnc23)nc1Nc1cc(C2CC2)[nH]n1 [II-23, N^2-((6-Chloro-1H-benzo[d]imidazol-4-yl)methyl)-N^4-(5-cyclopropyl-1H-pyrazol-3-yl)-5-fluoropyrimidine-2,4-diamine] |
| 339 | 41.3 |  |  | < 50 | Cc1n[nH]c2cc(Cl)cc(CNc3ncc(F)c(Nc4cc(C5CC5)[nH]n4)n3)c12 [II-24, N^2-((6-Chloro-3-methyl-1H-indazol-4-yl)methyl)-N^4-(5-cyclopropyl-1H-pyrazol-3-yl)-5-fluoropyrimidine-2,4-diamine] |
| 648 | 97.9 |  |  | 50 to 250 | CCOc1cc(Nc2ccnc(N(C)Cc3ccc4[nH]cnc4c3Cl)n2)n[nH]1 [II-33, N^2-((4-Chloro-1H-benzo[d]imidazol-5-yl)methyl)-N^4-(5-ethoxy-1H-pyrazol-3-yl)-N^2-methylpyrimidine-2,4-diamine] |
| 1900 | 165 |  |  | 50 to 250 | CN(Cc1ccc2nc[nH]c2c1Cl)c1nccc(Nc2cc(CCC#N)[nH]n2)n1 [II-45, 3-(3-(2-(((4-Chloro-3H-benzo[d]imidazol-5-yl)methyl)(methyl)amino)pyrimidin-4-ylamino)-1H-pyrazol-5-yl)propanenitrile] |
|  |  |  |  | < 50 | FC(F)(F)c1cc(CNc2nccc(Nc3cc(C4CC4)[nH]n3)n2)c2cn[nH]c2c1 [II-99, N^4-(5-Cyclopropyl-1H-pyrazol-3-yl)-N^2-((6-(trifluoromethyl)-1H-indazol-4-yl)methyl)pyrimidine-2,4-diamine] |
|  |  |  |  | < 50 | CN(Cc1c(F)ccc2[nH]ncc12)c1nccc(Nc2cc(C3CC3)[nH]n2)n1 [II-100, N^4-(5-cyclopropyl-1H-pyrazol-3-yl)-N^2-((5-fluoro-1H-indazol-4-yl)methyl)-N^2-methylpyrimidine-2,4-diamine] |
|  |  |  |  | 50 to 250 | Fc1cc(CNc2ncc(F)c(Nc3cc([C@@H]4CC4(F)F)[nH]n3)n2)c2cn[nH]c2c1 [II-101, (S)-N^4-(5-(2,2-difluorocyclopropyl)-1H-pyrazol-3-yl)-5-fluoro-N^2-((6-fluoro-1H-indazol-4-yl)methyl)pyrimidine-2,4-diamine] |
|  |  |  |  | 50 to 250 | CN(Cc1ccc2[nH]cnc2c1)c1ncc(F)c(Nc2cc(C3CC3)[nH]n2)n1 [II-103, N^2-((1H-benzo[d]imidazol-5-yl)methyl)-N^4-(5-cyclopropyl-1H-pyrazol-3-yl)-5-fluoro-N^2-methylpyrimidine-2,4-diamine] |
|  |  |  |  | 50 to 250 | CCN(Cc1ccc2[nH]cnc2c1)c1ncc(F)c(Nc2cc(C3CC3)[nH]n2)n1 [II-104, N^2-((1H-benzo[d]imidazol-5-yl)methyl)-N^4-(5-cyclopropyl-1H-pyrazol-3-yl)-N^2-ethyl-5-fluoropyrimidine-2,4-diamine] |
|  |  |  |  | 50 to 250 | CN(C)CCN(Cc1ccc2[nH]cnc2c1)c1nccc(Nc2cc(C3CC3)[nH]n2)n1 [II-105, N^2-((1H-benzo[d]imidazol-5-yl)methyl)-N^4-(5-cyclopropyl-1H-pyrazol-3-yl)-N^2-(2-(dimethylamino)ethyl)pyrimidine-2,4-diamine] |
|  |  |  |  | 50 to 250 | Fc1cc(CNc2ncc(Cl)c(Nc3cc(C4CC4)[nH]n3)n2)c2cn[nH]c2c1 [II-106, 5-chloro-N^4-(5-cyclopropyl-1H-pyrazol-3-yl)-N^2-((6-fluoro-1H-indazol-4-yl)methyl)pyrimidine-2,4-diamine] |
|  |  |  |  | 50 to 250 | CCc1cc(Nc2ccnc(NCc3cc(F)cc4[nH]ncc34)n2)n[nH]1 [II-107, N^4-(5-ethyl-1H-pyrazol-3-yl)-N^2-((6-fluoro-1H-indazol-4-yl)methyl)pyrimidine-2,4-diamine] |
|  |  |  |  | 50 to 250 | Fc1cnc(N(Cc2ccc3[nH]cnc3c2)C2CCCC2)nc1Nc1cc(C2CC2)[nH]n1 [II-108, N^2-((1H-benzo[d]imidazol-5-yl)methyl)-N^2-cyclopentyl-N^4-(5-cyclopropyl-1H-pyrazol-3-yl)-5-fluoropyrimidine-2,4-diamine] |
|  |  |  |  | 250 to 1000 | Fc1cnc(NCc2cc(C(F)(F)F)cc3[nH]ncc23)nc1Nc1cc(C2CC2)[nH]n1 [II-109, N^4-(5-cyclopropyl-1H-pyrazol-3-yl)-5-fluoro-N^2-((6-(trifluoromethyl)-1H-indazol-4-yl)methyl)pyrimidine-2,4-diamine] |
|  |  |  |  | < 50 | CN(C)CCN(Cc1cc(F)cc2[nH]ncc12)c1nccc(Nc2cc(C3CC3)[nH]n2)n1 [II-110, N^4-(5-cyclopropyl-1H-pyrazol-3-yl)-N^2-(2-(dimethylamino)ethyl)-N^2-((6-fluoro-1H-indazol-4-yl)methyl)pyrimidine-2,4-diamine] |
|  |  |  |  | < 50 | CCN(Cc1ccc2[nH]cnc2c1Cl)c1ncc(F)c(Nc2cc([C@@H]3C[C@@H]3F)[nH]n2)n1 [II-111, N^2-((4-chloro-1H-benzo[d]imidazol-5-yl)methyl)-N^2-ethyl-5-fluoro-N^4-(5-((1S,2S)-2-fluorocyclopropyl)-1H-pyrazol-3-yl)pyrimidine-2,4-diamine] |
|  |  |  |  | < 50 | Clc1c[nH]c2cccc(CNc3nccc(Nc4cc(C5CC5)[nH]n4)n3)c12 [II-112, N^2-((3-chloro-1H--indol-4-yl)methyl)-N^4-(5-cyclopropyl-1H-pyrazol-3-yl)pyrimidine-2,4-diamine] |
|  |  |  |  | < 50 | CN(Cc1cc2nc[nH]c2cc1F)c1nccc(Nc2cc(C3CC3)[nH]n2)n1 [II-113, N^2-((6-fluoro-1H-benzo[d]imidazol-5-yl)methyl)-N^4-(5-cyclopropyl-1H-pyrazol-3-yl)-N^2-methylpyrimidine-2,4-diamine] |

From patent publication US8637537B2, “Serine/threonine kinase inhibitors” (Genentech, Inc., priority 2011, dated 2014)
